Laboratory results taken from patent US20040005649A1, “Anti-stilbene antibodies” (priority 2003, published 2004).
Values belong to the compound of their own block, whether it stands above or below them.

Legend:
mAb 19G2 = assay: Binding of stilbene-tethered C-nucleosides to blue-fluorescent mAb 19G2 (fluorescence, crystal soak); set-up: species or system mice; conditions: for emission of mAb 19G2 crystal after soaking: crystal soaked with ligand, UV lamp
Method: Each C-nucleoside was tested for the ability to bind to the blue-fluorescent monoclonal antibody (mAb) 19G2. […] Subsequently, we acquired X-ray crystallographic data on both complexes primarily to obtain information regarding positioning of the nucleobase moiety with regard to the protein framework. The structures of the 19G2-9 and 19G2-18 complexes were determined to a resolution of 2.45 Å and 2.20 Å, respectively (Table 4). In both cases, the antibody structures differ by an RMSD of 0.61 Å and 0.50 Å from that of the previously determined 19G2-12 complex. The stilbene portion of both 9 and 18 is clear in 2σ density and could be readily modeled into the density as the trans-isomer. For both complexes, binding site amino acid residues within 5 Å of the stilbene are observed to be in the same conformation as in 19G2-12.
X-ray crystallography. Crystals of mAb 19G2 were soaked overnight with a 0.25 mM solution of either 9 or 18 (DMF stock solutions) in mother liquor from the crystal growth (12% polyethylene glycol, 0.1 M sodium acetate pH 4.75, 0.3 M magnesium chloride) containing 5% DMF. Formation of the complex in the crystal was assayed by the appearance of blue fluorescence from soaked crystals when illuminated by a hand-held UV lamp at 312 nm (Spectronics Corp.; Westbury, N.Y.). The crystals were soaked in a cryobuffer consisting of 20% glycerol, 0.25 mM 9 or 18, mother liquor, and 5% DMF and flash frozen in liquid nitrogen. X-ray diffraction was collected in-house with an FRD X-ray generator and a RAXISIVF^++ detector. Data was processed and scaled using HKL software package. The previously determined structure of the antibody (PDB ID CODE 1FL3) was used as a starting model for refinement. Multiple rounds of rigid body refinement, B-factor refinement, Powell minimization, simulated annealing in CNS and manual rebuilding in O were performed.

[1] = Steady-state UV absorption, fluorescence excitation and emission spectra, quantum yield; type: physicochemical
Method: (A) UV absorption. (B) Fluorescence excitation. Note: The 19G2-2 complex and free 2 each required a separate y-axis scale for side-by-side comparison of peak shapes. (C) Fluorescence emission. See note for (B). In all cases, see Table 2 for experimental conditions. Steady-state excitation and emission spectra were recorded using an SLM 8100 spectrofluorimeter (Spectronics Instruments) with a bandpass of 4 nm for excitation and emission.

[2] = Picosecond time-resolved emission, time-correlated single photon counting; type: physicochemical
Method: Measurements were obtained with picosecond excitation at 318 nm. Decays were measured at 380 nm (free 2, 16H10 and 25E5 complexes) or 410 nm (19G2 complex) by time-correlated single photon counting. Decays were recorded in 4096 channels with a time increment of 18 ps/channel and were normalized relative to the number of counts recorded in the peak channel. See Table 3 for experimental conditions.
Normalized time-resolved emission profiles of the 20F2-2 complex were recorded at 370 nm (purple) and 480 nm (blue). The solid lines are multiexponential fits to each decay. […] Decays were recorded in 4096 channels with a time increment of 4.9 ps/channel and were normalized relative to the number of counts recorded in the peak channel. See Table 3 for experimental conditions.
Dynamic spectroscopy. Picosecond time-resolved emission spectroscopy was used to further probe the dynamics of blue-fluorescent antibodies. Time-resolved emission decay profiles of free 2 and bound to EP2 mAbs were measured at room temperature by time-correlated single-photon counting (Table 3, FIG. 16).

[3] = 77° K in hydrophobic solvents and 193° K in glycerol; cited from earlier work
[4] = 20 μM mAb, 10 μM of 2 (or free stilbene), PBS pH 7.4, 5% DMF, 20° C
[5] = 20 μM mAb, 10 μM of 2 (or free stilbene), PBS, 5% DMF, 20° C

- quantum yield (φf) of complex with mAb 19G2 (mAb 19G2): ~0.80
- λem [1, 4]: 388 nm
- λex [1, 4]: 325 nm
- εmax [1, 5]: 33200 M⁻¹ cm⁻¹
- φf lower than blue-fluorescent antibody complexes ([1]; free 2 in fluid solution): 30-40 fold
- φf (fluorescence quantum yield) ([1]; reference quinine bisulfate, 20 μM mAb, 10 μM of 2, PBS, 5% DMF, 20° C, accurate to ±10%): 0.02
- UV absorption bands ([1]; values in parentheses are shoulders/inflections, 20 μM mAb, 10 μM of 2, PBS, 5% DMF, 20° C): 320 nm
- fluorescence decay components, τf ([2]; 20 μM mAb, 10 μM of 2 (or free 2), PBS, 5% DMF, 20° C): 0.071 ns
- τr (radiative lifetime) ([2]; calculated from τf and φf): 3.6 ns
- fluorescence lifetime ([2]; free in aqueous buffer, room temperature): ~70 ps
SMILES: O=C(O)CCCC(=O)Nc1ccc(/C=C/c2ccccc2)cc1 [compound 2, 5-oxo-5-[[4-[(1E)-2-phenylethenyl]phenyl]amino]-pentanoic acid]
- kr (radiative rate constant) ([2]; calculated as the inverse of τr): 0.28 ns^−1
- knr (nonradiative rate constant) ([2]; calculated knr = [kr(1-φf)/φf]): 14 ns^−1

- quantum yield (φf) of complex with mAb 19G2 (mAb 19G2): comparable
- emission of mAb 19G2 crystal after soaking (mAb 19G2): blue emission
- λem [1, 4]: 442 nm
- εmax [1, 5]: 30000 M⁻¹ cm⁻¹
SMILES: O=C(CCCC(=O)Nc1ccc(/C=C/c2ccccc2)cc1)NCCc1ccc(C2C[C@H](O)[C@@H](CO)O2)cc1 (stereo partly drawn) [compound 9, N-[2-[4-[2-deoxy-D-erythro-pentofuranosyl]phenyl]ethyl]-N′-[4-[(1E)-2-phenylethenyl]phenyl]-pentanediamide, reference compound]

- quantum yield (φf) of complex with mAb 19G2 (mAb 19G2): comparable
- emission of mAb 19G2 crystal after soaking (mAb 19G2): blue emission
SMILES: OCC1OC(c2ccc(COCCOCCOCc3ccc(C=Cc4ccccc4)cc3)cc2)CC1O [compound 18, 1,4-anhydro-2-deoxy-1-C-[4-[[2-[2-[[4-[(1E)-2-phenylethenyl]phenyl]methoxy]ethoxy]ethoxy]methyl]]phenyl]-D-erythro-pentitol]

SMILES: C(=C\c1ccccc1)/c1ccccc1 [compound 1, trans-stilbene]
- φf [3]: 0.75
